These results are taken from US20240287533A1, “GLUTEN MODIFICATION” (The Regents of the University of California, priority 2021, published 2024).

“Also recorded” adds a separate entry of the source.

For assay [1], the system named is human monocytes (THP-1). The assay is described as follows: IL-8 production by THP-1 monocytes (ELISA). The conditions noted are these: 18 hours; for IL-8 production compared to the dsDNA-gld-1 complex: peptide in the presence of dsDNA; for IL-8 secretion: dsDNA+peptide, compared to media control, dsDNA alone or peptide alone. Format: cell-based. The method, then:
(§1) In order to test the biological impact of gluten peptide fragment/dsDNA complexes, human monocytes (THP-1) and human colorectal adenocarcinoma cells (HT-29) were treated with medium as a control, dsDNA alone, gld-1 alone, or dsDNA+gld-1 for 18 hours, then production and secretion of interleukin-8 (IL-8) were assessed by ELISA.
Background: An ELISA detects its analyte on a solid surface through an enzyme-linked reagent.

Assay [2] deals with Escherichia coli dsDNA. Description: Small Angle X-ray Scattering (SAXS) of peptide-dsDNA complexes. The conditions noted are these: peptide incubated with genomic E. coli dsDNA. Format: binding. The method, then: The peaks correspond to a rhombic columnar lattice with inter dsDNA spacing, d=4.0 nm, and tilt angle, γ=104.6°. To facilitate visualization, spectra were manually offset vertically by a multiplicative factor.
Double stranded DNA (dsDNA) is an example of a PAMP that is readily available in the gastrointestinal tract (e.g., from food or the gut microbiome). To assess the ability of gluten derived peptide gld-1 to bind dsDNA, Escherichia coli dsDNA was incubated with gld-1, and the formation of an ordered dsDNA-gld-1 complex was assessed.
Small Angle X-ray Scattering (SAXS) measurements of the complex produced Bragg reflections at q10=1.61 and q11=2.55 nm^−1.
Genomic E. coli dsDNA was incubated with gld-2 and gld-3 to test the formation of an ordered dsDNA-peptide complex.

Assay [3] deals with wild-type macrophages. The assay is described as follows: Cytokine gene expression (qPCR) in wild-type macrophages. Type of assay: cell-based, mouse. The settings on record: dsDNA-peptide complex, 20 hours. The text has this:
(§2) To further validate the role of the dsDNA-gld-1 complex in the innate immune activation of TLR9, TLR9 knock-out (TLR9KO) mouse macrophages were compared to wild-type controls. […] Such increased gene expression was attenuated in TLR9KO macrophages, which lack TLR9 (FIG. 6C).
(In qPCR the cycle at which signal appears reflects the starting amount.)

Assay [4] addresses T1, human wild-type TLR9 (Homo sapiens, UniProt Q9NR96).
T1 construct: expressed in transfected cells
T1 sequence (Q9NR96 26-1032): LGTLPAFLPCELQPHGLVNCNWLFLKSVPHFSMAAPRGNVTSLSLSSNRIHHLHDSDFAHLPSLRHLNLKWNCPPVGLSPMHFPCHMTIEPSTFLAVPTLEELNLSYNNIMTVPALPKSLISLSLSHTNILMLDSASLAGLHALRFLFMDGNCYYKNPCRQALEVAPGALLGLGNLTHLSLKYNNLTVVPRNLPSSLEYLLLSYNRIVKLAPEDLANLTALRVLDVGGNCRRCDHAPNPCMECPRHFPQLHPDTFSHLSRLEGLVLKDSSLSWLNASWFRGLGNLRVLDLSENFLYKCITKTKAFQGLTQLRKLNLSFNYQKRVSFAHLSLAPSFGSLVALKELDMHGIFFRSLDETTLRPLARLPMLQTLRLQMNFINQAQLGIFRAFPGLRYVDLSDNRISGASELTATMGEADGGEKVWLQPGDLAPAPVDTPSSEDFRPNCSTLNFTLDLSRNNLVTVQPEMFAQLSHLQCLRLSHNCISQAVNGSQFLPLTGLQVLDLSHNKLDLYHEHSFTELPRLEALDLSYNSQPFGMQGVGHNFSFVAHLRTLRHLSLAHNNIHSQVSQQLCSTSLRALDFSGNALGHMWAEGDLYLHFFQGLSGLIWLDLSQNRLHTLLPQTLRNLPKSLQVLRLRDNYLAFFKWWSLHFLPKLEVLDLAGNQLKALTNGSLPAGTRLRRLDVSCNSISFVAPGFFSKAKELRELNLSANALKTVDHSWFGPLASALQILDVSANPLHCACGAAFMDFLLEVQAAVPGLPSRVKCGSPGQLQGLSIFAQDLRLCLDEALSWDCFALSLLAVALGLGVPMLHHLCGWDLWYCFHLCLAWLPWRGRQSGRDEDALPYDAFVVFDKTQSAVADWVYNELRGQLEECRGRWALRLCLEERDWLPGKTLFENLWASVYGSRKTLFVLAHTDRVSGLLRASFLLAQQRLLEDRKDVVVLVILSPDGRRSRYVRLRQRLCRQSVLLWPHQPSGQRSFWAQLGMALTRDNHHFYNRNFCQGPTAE
Description: NF-κB/IL-8 luciferase reporter in HEK293 cells transfected with TLR9 plasmid. Type of assay: cell-based. The settings on record: 4 hours. As for the experimental part:
TLR9, Toll-like Receptor 9.
(§3) After 48 hours of recovery, cells were then treated for 4 hours with medium as a control, dsDNA alone, gld-1 peptide alone, or dsDNA-gld-1 complex, and luciferase activity measured.

Assay [5] relates to HEK293 cells (which do not express TLR9). Description: NF-κB/IL-8 luciferase reporter in HEK293 cells transfected with pcDNA3.1 vector control. Format: cell-based, human. The conditions noted are these: 4 hours. As for the experimental part:
as §3
(In general: A reporter such as luciferase makes a cellular process visible.)

Assay [6] deals with TLR9 knock-out (TLR9KO) mouse macrophages. The assay is described as follows: Cytokine gene expression (qPCR) in TLR9 knockout macrophages. Type of assay: cell-based. The conditions noted are these: dsDNA-peptide complex, 20 hours, TLR9KO versus wild-type.
Description: as §2

Assay [7] concerns human colorectal adenocarcinoma cells (HT-29). Description: IL-8 production by HT-29 cells (ELISA). The settings on record: dsDNA+peptide, 18 hours, compared to dsDNA or peptide alone or media control. Type of assay: cell-based. As for the experimental part: as §1

On to “LAAQLWQIPEQSRAQAIHNVVH (listed as Triticum aestivum) [gld-1A, variant of gld-1 in which all cysteines were replaced with alanines]”, for which the “IL-8 production compared to the dsDNA-gld-1 complex” value in assay [1] was “reduced the dsDNA-peptide complex activity”.

Turning to “LWQIPEQSQCQAIHNVVHA (listed as Triticum aestivum) [gld-2, single mutation of gld-1 replacing a cationic amino acid with glutamine]”, the “formation of an ordered nanocrystalline dsDNA-peptide complex (Bragg peaks)” value (“formation” for short) in assay [2] is given as “inability of these two peptides to form an ordered nanocrystalline columnar structure with dsDNA”. Also, in assay [1], the “IL-8 production compared to the dsDNA-gld-1 complex” value is reported as “attenuated production of IL-8”.

Consider “LWQIPEQSQCQAIHNVVQA (listed as Triticum aestivum) [gld-3, double mutation of gld-1 replacing cationic amino acids with glutamine]”, for which, in assay [2], the “formation” value is “inability of these two peptides to form an ordered nanocrystalline columnar structure with dsDNA”. Besides, the “IL-8 production compared to the dsDNA-gld-1 complex” value in assay [1] is listed as “attenuated production of IL-8”.

As for “LWQIPEQSRCQAIHNVVHA (listed as Triticum aestivum) [gld-1]”, the “interleukin-6 (IL-6) gene expression” value in assay [3] is “significant increase”. Further, in assay [3], the “keratinocyte-derived chemokine (KC) gene expression” value is reported as “significant increase”. In addition, the “NF-κB/IL-8 activation (luciferase)” value was “significantly higher activation” in assay [4] (dsDNA-peptide complex, compared to dsDNA alone); “significant increase” in assay [4] (dsDNA-peptide complex, compared to the media control); “did not significantly increase activation” in assay [4] (peptide alone, compared to the media control). Moreover, the “NF-κB/IL-8 luciferase reporter signal” value in assay [5] (dsDNA-peptide complex) and in assay [5] (peptide alone) was “comparable NF-κB/IL-8 luciferase reporter signal to the media control” throughout. For the same sequence, in assay [6], the IL-6 gene expression result is listed as “attenuated”. Further, the IL-8 secretion result in assay [7] is on record as “increased secretion of IL-8”; in assay [1], “significant increase in IL-8 secretion”. Also, the “formation” value in assay [2] was “form strongly immunomodulatory complexes with dsDNA; also recorded: able to organize dsDNA into a nano-crystalline lattice structure; also recorded: able to form a well-structured complex”.

With “RAAQQLRDVSAKARSVAVSQVAR (listed as Triticum aestivum) [gld-4A, cysteine-to-alanine mutant of gld-4]”, the “IL-8 production, gld-4A compared to gld-4” value in assay [1] (with dsDNA) was “No significant difference”.

“RCCQQLRDVSAKCRSVAVSQVAR (listed as Triticum aestivum) [gld-4]”: in assay [1], the IL-8 secretion entry is “stimulated IL-8 production” and the “IL-8 production compared to the dsDNA-gld-1 complex” value is given as “smaller than the dsDNA-gld-1 complex”.
